Reference: article PMC9324262, “Selective CDK9 Inhibition by Natural Compound Toyocamycin in Cancer Cells” (Cancers, 2022)
Where “and” joins values, the source holds several entries; their conditions need not be identical. Identical values can stand only once.

Legend:
[1] = tested on: HCT116 SFRP1-GFP colon cancer cells; assay: GFP reactivation in HCT116 SFRP1-GFP model; type: cell-based, human; details: dose-response
Protocol: YB5 cells are derived from SW48 cells (human colon cancer cell line), and contain a single insertion of a DNA hypermethylated cytomegalovirus (CMV) promoter driving the green fluorescent protein (GFP) gene, as previously described. YB5 cells are cultured in L-15 medium supplemented with 10% fetal bovine serum and grown in log-phase in 1% CO2 atmosphere. YB5 cells were authenticated by DNA fingerprinting prior to drug screening and validation experiments. GFP expression in YB5 cells is silenced in >99.9% of the cells due to the CMV promoter DNA hypermethylation and repressive chromatin marks around the transcriptional start site. The human HCT116 colon cancer-derived GFP-reporter system, comprising a GFP gene under the control of an endogenously hypermethylated SFRP1 gene promoter, was kindly provided by Dr. Stephen Baylin (Johns Hopkins University). These cells are cultured in McCoy’s 5A medium supplemented with 10% fetal bovine serum and grown in log-phase in 5% CO2 atmosphere at 37 °C. […]
After treatment, YB5 cells were trypsinized for 15 min and resuspended in L-15 media containing propidium iodide (PI) to stain dead cells. GFP expression and PI staining were quantified by a BD LSR II flow cytometer (BD Biosciences, San Jose, CA, USA). A maximum of 10,000 cells was analyzed per well. […]

[2] = cell viability by Viacount, HCT116; type: cell-based; details: human, HCT116 colon cancer cells; 24 and 72 h, 50 nM to 50 µM, highest doses; read-out: cell viability relative to untreated cells
Protocol: Cell viability was measured in YB5 and HCT166 cells using Viacount (Luminex, Austin, TX, USA, 4000-0040) on a Guava flow cytometer (Millipore, Burlington, MA, USA). Colon cancer cells were grown in 96-well plates in the same conditions as in the drug screen and treated with toyocamycin and known CDK9 inhibitor BAY1251152 (Selleckchem, Houston, TX, USA). Cell culture media of each well was collected to harvest floating dead cells and kept aside for later. Cells were trypsinized (0.25% trypsin, Gibco, Waltham, MA, USA) for 5 min at 37 °C. Cell culture media of each well was added back to their corresponding wells to stop trypsinization and mixed thoroughly to obtain a single cell suspension. Viacount solution (Luminex, Austin, TX, USA, 4000-0040, 25 μL) was added to each well, and incubated (5 min at room temperature, in the dark) prior to cell viability analysis on the Guava flow cytometer.

histone 3 and histone 4 = assay: histone acetylation by mass spectrometry; type: cell-based, human; details: eleven lysine residues, YB5 cells
Protocol: As described previously, histone proteins were acid-extracted (0.2 N HCl) for 16 h. Histone acetylation levels were quantified on histone 3 and histone 4 by a Thermo TSQ Quantum Access triple quadrupole (QqQ) mass spectrometer (Thermofisher Scientific, Waltham, MA, USA).

CDK9/Cyclin T1 = biological target: T1, CDK9/Cyclin T1 (Homo sapiens, UniProt P50750); assay: in vitro kinase assay CDK9/Cyclin T1 (Kinase-Glo Plus luminescence); type: biochemical
T1 construct: purchased BPS Bioscience
Protocol: The in vitro enzymatic assays were conducted at BPS Bioscience. CDK9/Cyclin T1, CDK2/Cyclin 2A, CDK4/Cyclin D3, and CDK6/Cyclin D3 enzymatic activities were tested with an ATP Kinase-Glo Plus Luminescence kinase assay kit (Promega, V6073, Madison, WI, USA), while the CDK7/Cyclin H/MAT1 activities were tested using ADP-Glo Kinase (Promega, V6930). These assays measure kinase activity by quantifying the amount of ATP or ADP remaining in solution following a kinase reaction. The luminescent signal from the assay is correlated to the amount of ATP or ADP present and is inversely correlated to the kinase activity. The compounds were diluted to 10% DMSO and were added to the reaction so that the final concentration of DMSO was 1% in all reactions. All enzymatic reactions were conducted at 30 °C for 60 min. […] After the enzymatic reaction, the luminescence signal was measured using a BioTek Synergy 2 microplate reader (Agilent, Santa Clara, CA, USA). Kinase activity assays were performed in duplicate at each concentration and the percent of kinase activity was calculated as a ratio of luminescence intensities in the absence or in presence of the compounds. […] IC50 values were determined by the concentration causing a half-maximal percent activity (BPS Bioscience, San Diego, CA, USA).

T1 sequence (P50750 whole entry): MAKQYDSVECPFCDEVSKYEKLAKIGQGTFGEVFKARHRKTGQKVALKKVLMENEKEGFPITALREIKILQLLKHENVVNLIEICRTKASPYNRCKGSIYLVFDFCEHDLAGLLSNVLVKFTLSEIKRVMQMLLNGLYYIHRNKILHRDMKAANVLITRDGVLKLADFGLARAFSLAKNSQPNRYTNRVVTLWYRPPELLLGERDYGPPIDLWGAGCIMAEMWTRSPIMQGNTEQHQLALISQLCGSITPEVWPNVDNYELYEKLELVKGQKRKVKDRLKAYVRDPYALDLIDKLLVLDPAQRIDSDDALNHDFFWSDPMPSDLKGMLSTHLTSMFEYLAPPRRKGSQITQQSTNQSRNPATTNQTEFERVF
T1 sequence (O60563 whole entry partner): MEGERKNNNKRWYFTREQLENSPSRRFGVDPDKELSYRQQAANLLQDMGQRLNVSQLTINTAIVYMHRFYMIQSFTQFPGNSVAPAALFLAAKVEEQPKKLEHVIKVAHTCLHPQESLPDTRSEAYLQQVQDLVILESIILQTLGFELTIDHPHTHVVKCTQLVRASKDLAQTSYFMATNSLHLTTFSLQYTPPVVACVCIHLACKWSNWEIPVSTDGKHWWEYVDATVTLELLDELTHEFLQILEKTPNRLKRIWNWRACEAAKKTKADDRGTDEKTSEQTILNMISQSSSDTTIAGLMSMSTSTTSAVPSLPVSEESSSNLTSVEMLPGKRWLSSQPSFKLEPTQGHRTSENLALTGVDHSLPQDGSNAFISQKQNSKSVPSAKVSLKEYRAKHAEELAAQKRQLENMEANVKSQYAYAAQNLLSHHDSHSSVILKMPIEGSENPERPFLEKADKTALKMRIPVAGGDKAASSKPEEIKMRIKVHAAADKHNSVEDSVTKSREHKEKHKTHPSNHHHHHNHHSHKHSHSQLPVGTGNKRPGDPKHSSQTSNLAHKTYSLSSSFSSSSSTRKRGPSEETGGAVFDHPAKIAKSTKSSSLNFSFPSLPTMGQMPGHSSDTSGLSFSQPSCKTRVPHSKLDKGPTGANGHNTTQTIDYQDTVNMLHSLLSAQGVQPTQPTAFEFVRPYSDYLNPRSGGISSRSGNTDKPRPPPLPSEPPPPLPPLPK

## N#Cc1cn([C@@H]2O[C@H](CO)[C@@H](O)[C@H]2O)c2ncnc(N)c12 [toyocamycin, 7-Deaza-7-cyanoadenosine]
[1]
  GFP expression: induced dose-dependent GFP expression
[2]
  viability: > 50%
Histone 3 and histone 4
  histone 3 and 4 lysine acetylation levels: did not modify lysine acetylation levels
CDK9/Cyclin T1; IC50, 10 µM ATP, 30 °C, 60 min
  IC50: 79 nM and 79.5 nM
CDK9/Cyclin T1; IC50, as quoted in docking section
  IC50: 80 nM
